Test results reported in patent US4226865A, “Method of treating depression” (Hoffmann-La Roche Inc., priority 1976, dated 1980).

Legend:
[1] = Toxicity (LD50), p.o. in the mouse; settings: in vivo, po
Protocol: (§1) Thus, the thiobenzamides of formula I to be tested were administered p.o. to rats. One hour after the administration, the rats were killed and the MAO inhibiting activity in the liver homogenates was measured according to the method in Biochem. Pharmacol. 12, pp. 1439-1441 (1963). The thus determined activity of representative thiobenzamides of formula I as well as their toxicity is evident from the ED50 values (μmol/kg, p.o. in the rat) or LD50 values (mg/kg, p.o. in the mouse) listed in the Table which follows: […]

monoamine oxidase (MAO) = experiment: MAO inhibiting activity in liver homogenates of rats one hour after p.o. administration; type: in vivo; settings: p.o. in the rat; MAO activity measured in liver homogenates one hour after administration; 60 min
Protocol: as §1

SMILES	LD50 [1] [mg/kg]	ED50 (MAO inhibiting activity) (monoamine oxidase (MAO)) [µmol/kg]
CC(C)(C)c1ccc(C(=S)NCCN2CCOCC2)cc1 [p-t-butyl-N-(2-morpholinoethyl)-thiobenzamide]	> 5000	10
S=C(NCCN1CCOCC1)c1ccc(Br)cc1 [p-bromo-N-(2-morpholinoethyl)-thiobenzamide]	1250 to 2500	2
S=C(NCCN1CCOCC1)c1ccc(Cl)cc1 [p-chloro-N-(2-morpholinoethyl)thiobenzamide]	1250 to 2500	2
